Data from ChEMBL document CHEMBL1125556, “Fluoroquinolones: relationships between structural variations, mammalian cell cytotoxicity, and antimicrobial activity” (J Med Chem, 1992).
≈ marks a conversion by molar mass, not a printed value.

Tests used:
[1] = system: V79; assay: Mammalian cell cytotoxicity test in chinese hamster V79 cells (clonogenic cytotoxicity); format: functional, cell-based
[2] = Antibacterial activity against five Gram-negative bacteria; format: functional
[3] = Cricetulus griseus, V79, read-out: IC50

Row | Structure (SMILES) | IC50 ([1]; v79) [µg/mL] | MIC [2] [µg/mL] | IC50 [1, 3] [µg/mL] | MIC ([2]; read-out: MIC) [µg/mL]
1 | CCNCC1CCN(c2c(F)cc3c(=O)c(C(=O)O)cn(C4CC4)c3c2OC)C1 (stereo in doubt; 68) | 22 (≈ 54.5 µM) | 0.26 (≈ 0.644 µM) | – | –
2 | NC1CCN(c2c(F)cc3c(=O)c(C(=O)O)cn(C4CC4)c3c2Cl)C1 (stereo in doubt; 46) [CLINAFLOXACIN] | 26 (≈ 71.1 µM) | 0.03 (≈ 0.082 µM) | – | –
3 | CCNCC1CCN(c2c(F)cc3c(=O)c(C(=O)O)cn(-c4ccc(F)cc4F)c3c2Cl)C1 (stereo not drawn) | – | – | 130 (≈ 271 µM) | 1.05 (≈ 2.19 µM)
4 | O=C(O)c1cn(C2CC2)c2c(Cl)c(N3CCNCC3)c(F)cc2c1=O | – | – | 43 (≈ 118 µM) | 0.07 (≈ 0.191 µM)
5 | CCNCC1CCN(c2c(F)c(Cl)c3c(=O)c(C(=O)O)cn(C4CC4)c3c2Cl)C1 (stereo not drawn) | – | – | 270 (≈ 610 µM) | 0.6 (≈ 1.36 µM)
6 | NC1CCN(c2c(F)cc3c(=O)c(C(=O)O)cn(C4CC4)c3c2[N+](=O)[O-])C1 (stereo not drawn) | – | – | 69 (≈ 183 µM) | 0.46 (≈ 1.22 µM)
7 | CNCC1(C)CCN(c2c(F)cc3c(=O)c(C(=O)O)cn(C4CC4)c3c2F)C1 (stereo not drawn) | – | – | 8 (≈ 20.4 µM) | 0.23 (≈ 0.588 µM)
8 | CCNCC1CCN(c2nc3c(cc2F)c(=O)c(C(=O)O)cn3C2CC2)C1 (stereo not drawn) | – | – | 160 (≈ 427 µM) | 0.21 (≈ 0.561 µM)
9 | CCNCC1CCN(c2c(F)cc3c(=O)c(C(=O)O)cn(CCF)c3c2F)C1 (stereo not drawn) | – | – | > 500 | 0.4 (≈ 1.01 µM)
10 | CNCC1(C)CCN(c2cc3c(cc2F)c(=O)c(C(=O)O)cn3C2CC2)C1 (stereo not drawn) | – | – | 205 (≈ 549 µM) | 0.4 (≈ 1.07 µM)
11 | CNCC1(C)CCN(c2nc3c(cc2F)c(=O)c(C(=O)O)cn3C2CC2)C1 (stereo not drawn) | – | – | 58 (≈ 155 µM) | 0.6 (≈ 1.6 µM)
12 | O=C(O)c1cn(C2CC2)c2c(C(F)(F)F)c(N3CCNCC3)c(F)cc2c1=O | – | – | 1650 (≈ 4130 µM) | 0.15 (≈ 0.376 µM)
13 | O=C(O)c1cn(C2CC2)c2c(Cl)c(N3CCCC3)c(F)cc2c1=O | – | – | 150 (≈ 428 µM) | 0.1 (≈ 0.285 µM)
14 | CC1CN(c2c(F)cc3c(=O)c(C(=O)O)cn(-c4ccc(F)cc4F)c3c2C(F)(F)F)CCN1 (stereo not drawn) | – | – | > 500 | 4.14 (≈ 8.53 µM)
15 | NCC1CCN(c2c(F)cc3c(=O)c(C(=O)O)cn(C4CC4)c3c2F)C1 (stereo not drawn) | – | – | 11 (≈ 30.3 µM) | 0.05 (≈ 0.138 µM)
16 | CCNCC1CCN(c2cc3c(cc2F)c(=O)c(C(=O)O)cn3-c2ccc(F)cc2F)C1 (stereo in doubt; 36b) | – | – | 190 (≈ 427 µM) | 0.8 (≈ 1.8 µM)
17 | CCNCC1CCN(c2c(F)c(C)c3c(=O)c(C(=O)O)cn(C4CC4)c3c2F)C1 (stereo not drawn) | – | – | 9 (≈ 22.2 µM) | 0.28 (≈ 0.691 µM)
18 | NC1CCCN(c2nc3c(cc2F)c(=O)c(C(=O)O)cn3C2CC2)C1 (stereo not drawn) | – | – | 100 (≈ 289 µM) | 0.4 (≈ 1.15 µM)
19 | NC1CCN(c2cc3c(cc2F)c(=O)c(C(=O)O)cn3C2CC2)C1 (stereo in doubt; 44) | 72 (≈ 217 µM) | 0.09 (≈ 0.272 µM) | – | –
20 | COc1c(N2CCC(N)C2)c(F)c(N)c2c(=O)c(C(=O)O)cn(C3CC3)c12 (stereo not drawn) | – | – | 100 (≈ 266 µM) | 0.11 (≈ 0.292 µM)
21 | NC1CCN(c2nc3c(cc2F)c(=O)c(C(=O)O)cn3C2CC2)C1 (stereo not drawn) | – | – | 98 (≈ 295 µM) | 0.03 (≈ 0.0903 µM)
22 | CCNCC1CCN(c2c(F)cc3c(=O)c(C(=O)O)cn(C4CC4)c3c2OC)C1 (stereo in doubt; 26d) | – | – | 22 (≈ 54.5 µM) | 0.26 (≈ 0.644 µM)

Row | Structure (SMILES) | IC50 ([1]; v79) [µg/mL] | MIC [2] [µg/mL] | IC50 [1, 3] [µg/mL] | MIC ([2]; read-out: MIC) [µg/mL]
23 | Nc1c(F)c(N2CCC(N)C2)c(F)c2c1c(=O)c(C(=O)O)cn2C1CC1 (stereo not drawn) | – | – | 15 (≈ 41.2 µM) | 0.01 (≈ 0.0274 µM)
24 | NCC1CCN(c2c(F)cc3c(=O)c(C(=O)O)cn(C4CC4)c3c2Cl)C1 (stereo not drawn) | – | – | 8 (≈ 21.1 µM) | 0.06 (≈ 0.158 µM)
25 | CCNCC1CCN(c2cc3c(c(N)c2F)c(=O)c(C(=O)O)cn3C2CC2)C1 (stereo not drawn) | – | – | 61 (≈ 157 µM) | 0.35 (≈ 0.901 µM)
26 | NCC1CCN(c2cc3c(cc2F)c(=O)c(C(=O)O)cn3C2CC2)C1 (stereo not drawn) | – | – | 81 (≈ 235 µM) | 0.2 (≈ 0.579 µM)
27 | CCNCC1CCN(c2cc3c(cc2F)c(=O)c(C(=O)O)cn3C2CC2)C1 (stereo in doubt; 26a) | – | – | 160 (≈ 428 µM) | 0.46 (≈ 1.23 µM)
28 | CCNCC1CCN(c2c(F)cc3c(=O)c(C(=O)O)cn(CC(F)(F)F)c3c2F)C1 (stereo not drawn) | – | – | 58 (≈ 134 µM) | 1.82 (≈ 4.2 µM)
29 | O=C(O)c1cn(C2CC2)c2nc(N3CCNCC3)c(F)cc2c1=O | – | – | 120 (≈ 361 µM) | 0.09 (≈ 0.271 µM)
30 | COc1c(N2CCC(CN)C2)c(F)cc2c(=O)c(C(=O)O)cn(C3CC3)c12 (stereo not drawn) | – | – | 10 (≈ 26.6 µM) | 0.11 (≈ 0.293 µM)
31 | CSc1c(F)c(N2CCC(N)C2)cc2c1c(=O)c(C(=O)O)cn2C1CC1 (stereo not drawn) | – | – | 92 (≈ 244 µM) | > 1.58
32 | CCNCC1CCN(c2c(F)cc3c(=O)c(C(=O)O)cn(C4CC4)c3c2N)C1 (stereo not drawn) | – | – | 290 (≈ 747 µM) | 0.91 (≈ 2.34 µM)
33 | C=Cn1cc(C(=O)O)c(=O)c2cc(F)c(N3CCC(N)C3)c(F)c21 (stereo not drawn) | – | – | 310 (≈ 925 µM) | 0.13 (≈ 0.388 µM)
34 | COc1c(N2CCCC2)c(F)cc2c(=O)c(C(=O)O)cn(C3CC3)c12 | – | – | 150 (≈ 433 µM) | 0.3 (≈ 0.866 µM)
35 | NC1CCN(c2cc3c(c(O)c2F)c(=O)c(C(=O)O)cn3C2CC2)C1 (stereo not drawn) | – | – | 72 (≈ 207 µM) | 0.04 (≈ 0.115 µM)
36 | CNCC1(C)CCN(c2c(F)cc3c(=O)c(C(=O)O)cn(C4CC4)c3c2C(F)(F)F)C1 (stereo not drawn) | – | – | 230 (≈ 521 µM) | > 30
37 | COc1c(N2CCCC(N)C2)c(F)cc2c(=O)c(C(=O)O)cn(C3CC3)c12 (stereo not drawn) | – | – | 69 (≈ 184 µM) | 0.23 (≈ 0.613 µM)
38 | CCNCC1CCN(c2cc3c(cc2F)c(=O)c(C(=O)O)cn3CC)C1 (stereo not drawn) | – | – | 310 (≈ 858 µM) | 0.56 (≈ 1.55 µM)
39 | NC1CCN(c2c(F)cc3c(=O)c(C(=O)O)cn(C4CC4)c3c2F)CC1 | – | – | 23 (≈ 63.3 µM) | 0.2 (≈ 0.55 µM)
40 | CC1CN(c2c(F)cc3c(=O)c(C(=O)O)cn(C4CC4)c3c2F)CC(C)N1 (stereo not drawn) | – | – | 150 (≈ 397 µM) | 0.05 (≈ 0.132 µM)
41 | CCNCC1CCN(c2c(F)c(F)c3c(=O)c(C(=O)O)cn(C4CC4)c3c2F)C1 (stereo not drawn) | – | – | 46 (≈ 112 µM) | 0.56 (≈ 1.37 µM)
42 | CN1CCN(c2c(F)cc3c(=O)c(C(=O)O)cn(CCF)c3c2F)CC1 [FLEROXACIN] | – | – | > 500 | 0.35 (≈ 0.948 µM)
43 | CCNCC1CCN(c2cc3c(cc2F)c(=O)c(C(=O)O)cn3-c2ccc(F)cc2F)C1 (stereo in doubt; 17) | 190 (≈ 427 µM) | 0.8 (≈ 1.8 µM) | – | –
44 | COc1c(F)c(N2CCC(N)C2)c(Cl)c2c1c(=O)c(C(=O)O)cn2C1CC1 (stereo not drawn) | – | – | > 500 | 2.08 (≈ 5.25 µM)

Row | Structure (SMILES) | IC50 ([1]; v79) [µg/mL] | MIC [2] [µg/mL] | IC50 [1, 3] [µg/mL] | MIC ([2]; read-out: MIC) [µg/mL]
45 | CCn1cc(C(=O)O)c(=O)c2cc(F)c(N3CCC(N)C3)c(F)c21 (stereo not drawn) | – | – | 300 (≈ 889 µM) | 0.12 (≈ 0.356 µM)
46 | NC1CCN(c2cc3c(cc2F)c(=O)c(C(=O)O)cn3C2CC2)C1 (stereo in doubt; 24a) | – | – | 72 (≈ 217 µM) | 0.09 (≈ 0.272 µM)
47 | NC1CCN(c2c(F)cc3c(=O)c(C(=O)O)cn(C4CC4)c3c2F)C1 (stereo in doubt; 24b) | 30 (≈ 85.9 µM) | 0.04 (≈ 0.115 µM) | – | –
48 | CCc1c(F)c(N2CCC(N)C2)cc2c1c(=O)c(C(=O)O)cn2C1CC1 (stereo not drawn) | – | – | 46 (≈ 128 µM) | 1.81 (≈ 5.04 µM)
49 | Nc1c(N2CCC(N)C2)c(F)cc2c(=O)c(C(=O)O)cn(C3CC3)c12 (stereo not drawn) | – | – | 260 (≈ 751 µM) | 0.53 (≈ 1.53 µM)
50 | CC1CN(c2c(F)cc3c(=O)c(C(=O)O)cn(C4CC4)c3c2C(F)(F)F)CCN1 (stereo not drawn) | – | – | 220 (≈ 532 µM) | 0.6 (≈ 1.45 µM)
51 | CCNCC1CCN(c2c(F)cc3c(=O)c(C(=O)O)cn(C4CC4)c3c2[N+](=O)[O-])C1 (stereo not drawn) | – | – | 67 (≈ 160 µM) | 1.05 (≈ 2.51 µM)
52 | Nc1c(F)c(N2CCC(N)C2)cc2c1c(=O)c(C(=O)O)cn2C1CC1 (stereo not drawn) | – | – | 54 (≈ 156 µM) | 0.04 (≈ 0.115 µM)
53 | COc1c(N2CCC(C)(N)C2)c(F)cc2c(=O)c(C(=O)O)cn(-c3ccc(F)cc3F)c12 (stereo not drawn) | – | – | 250 (≈ 559 µM) | 0.46 (≈ 1.03 µM)
54 | COc1c(N2CCC(N)C2)c(F)cc2c(=O)c(C(=O)O)cn(C3CC3)c12 (stereo in doubt; 47) | 44 (≈ 122 µM) | 0.07 (≈ 0.194 µM) | – | –
55 | CC1CN(c2c(F)cc3c(=O)c(C(=O)O)cn(C4CC4)c3c2Cl)CC(C)N1 (stereo not drawn) | – | – | 140 (≈ 355 µM) | 0.23 (≈ 0.584 µM)
56 | CC1CN(c2c(F)cc3c(=O)c(C(=O)O)cn(-c4ccc(F)cc4F)c3c2Cl)CCN1 (stereo not drawn) | – | – | > 500 | 2.07 (≈ 4.58 µM)
57 | CC1(CN)CCN(c2cc3c(cc2F)c(=O)c(C(=O)O)cn3C2CC2)C1 (stereo not drawn) | – | – | 23 (≈ 64 µM) | 0.52 (≈ 1.45 µM)
58 | CNCC1(C)CCN(c2c(F)cc3c(=O)c(C(=O)O)cn(C4CC4)c3c2Cl)C1 (stereo not drawn) | – | – | 23 (≈ 56.4 µM) | 0.26 (≈ 0.637 µM)
59 | CCNCC1CCN(c2cc3c(cc2F)c(=O)c(C(=O)O)cn3NC)C1 (stereo not drawn) | – | – | > 500 | 12.5 (≈ 34.5 µM)
60 | Cc1c(F)c(N2CCC(N)C2)cc2c1c(=O)c(C(=O)O)cn2C1CC1 (stereo not drawn) | – | – | 14 (≈ 40.5 µM) | 0.09 (≈ 0.261 µM)
61 | NC1CCN(c2c(F)cc3c(=O)c(C(=O)O)cn(C4CC4)c3c2Cl)CC1 | – | – | 18 (≈ 47.4 µM) | 0.08 (≈ 0.211 µM)
62 | O=C(O)c1cn(C2CC2)c2c(F)c(N3CCCC3)c(F)cc2c1=O | – | – | 120 (≈ 359 µM) | 0.1 (≈ 0.299 µM)
63 | NC1CCN(c2nc3c(cc2F)c(=O)c(C(=O)O)cn3C2CC2)CC1 | – | – | 100 (≈ 289 µM) | 0.23 (≈ 0.664 µM)
64 | NC1CCCN(c2c(F)cc3c(=O)c(C(=O)O)cn(C4CC4)c3c2C(F)(F)F)C1 (stereo not drawn) | – | – | > 500 | 0.52 (≈ 1.26 µM)
